Columns and labels:
[1] = tested on: Bacillus subtilis; assay: Soil competition (soil bacteria-enrichment) assay, qPCR with strain-specific probes; type: cell-based; settings: 1 g non-sterile agriculture soil, 300 μL exudates, 20 mM target carbon substrate, four species pooled, 72 hours, qPCR (FIG. 23)
Procedure: (§1) In some embodiments, the competition assay comprises adding one or more bacteria of interest to non-sterile agriculture soil at an equal starting OD and incubating the soil with plant root exudate and a desired concentration of candidate soil-bacteria enriching agent. In some embodiments, the non-sterile agriculture soil further comprises one or more plants. Methods of obtaining plant root exudate are known in the art. All such methods are suitable for use in the methods disclosed herein. For example, in some embodiments, plant root exudate is obtained by surface sterilizing Arabidopsis thaliana seeds, sowing the seeds on an agar plate and growing the seeds for 7 days. In some embodiments, after 7 days, the seedlings are transferred to a multi-well plate for exudate collection. In some embodiments, exudate collection comprises adding MS media to each well of the multi-well well plate along with about 50, 7-day old, Arabidopsis seedlings. The seedlings are then incubated with shaking in growth chamber for about 24 hours. After 24 hours, the exudates are collected, pooled, and filter sterilized. In some embodiments, the treated non-sterile agriculture soil is incubated with plant root exudate and a desired concentration of soil bacteria-enriching agent for about 3 days. After 3 days, DNA is extracted from soil and the concentration of the bacteria in the soil is measured. For example, in some embodiments, qPCR analysis is conducted using a universal bacteria primer “ALL” and species-specific primers. The threshold cycle (Ct) value for the universal primer is then subtracted from each of the species-specific primers to get the dCt or ΔCt.
(§2) The ability of the identified compounds to effectively manipulate the soil microbial community was examined using a series of soil bacteria-enrichment experiments. First, the ability of the candidate selective carbon substrates to influence microbial competition was tested using a series of soil competition experiments. 1 g of non-sterile agriculture soil was added to a 2 mL tube along with 300 μL of exudates, 20 mM target carbon substrates and an OD 3.33 of all four species pooled at an equal starting concentration. Tubes were collected after 72 hours and stored in −80° C. before processing. DNA was then extracted and screened using qPCR with probes unique to each strain to determine the abundance of each strain in the mixed community.

[2] = tested on: Pseudomonas putida; assay: as above; type: cell-based; settings: 1 g non-sterile agriculture soil, 300 μL exudates, 20 mM target carbon substrate, four species pooled, 72 hours, qPCR (FIG. 24)
Procedure: as §1, §2

[3] = tested on: Pseudomonas putida; assay: Persistence of P. putida bioinoculant in non-sterile soil over time (qPCR, ΔCt); type: cell-based; settings: initial density 10^5 cfu/g soil, exudate solution +/- 20 mM PEA, 28° C., sampled every 3 days, qPCR ΔCt (FIG. 25-26)
Procedure: FIG. 25-26 are graphs showing persistence of a P. putida bioinoculant over time. […] Lower ΔCt indicates higher abundance. P. putida was introduced into non-sterile soil at an initial density of 10^5 cfu/g soil in exudate solution +/−20 mM phenylethylamine (PEA) at day 0 and allowed to incubate at 28° C. Two replicates are shown for each condition. Every 3 days, soil was collected, and DNA was extracted to probe the concentration of P. putida using 16S primers. Template DNA for qPCR was normalized to ˜1 ng/reaction.

[4] = tested on: P. putida KT2440 (PP); assay: Enrichment of bioinoculant in soil in the presence of plants (bulk soil and root qPCR); type: in vivo, Pseudomonas putida; Arabidopsis thaliana seedlings; settings: agriculture soil in magenta box, +/- 20 mM phenylethylamine, 10^5 cells per gram of soil, four Arabidopsis seedlings, 1 or 2 weeks
From the text: Some embodiments herein are directed to a method of assessing whether a given soil bacteria-enriching agent enriches a specific species of bacteria in a soil microbiome comprising at least one additional bacterial species when one or more plants are being supported by the soil. In some embodiments, the method comprises adding a known concentration of one or more species of bacteria to soil along with a soil bacteria-enriching agent. In some embodiments, the bacteria comprise Pseudomonas putida (PP), Azotobacter vinelandii (AV), Bacillus subtilis (BS), and/or Azospirillum brasilense (AB). In some embodiments, soil moisture at the start of the experiment is adjusted a desired level for growth of the plant. One or more plants are then planted in the treated soil and allowed to grow for about 1, 2, 3, 4, 5, 6, 7, 8, 9, 10, 11, 12, 13, 14, 15, 16, 17, 18, 19, 20, 21, 22, 23, 24, 25, 26, 27, 28, 29, 30, or 31 days or more, or for an amount of time that is in a range that is defined by any two of the preceding values. […] The quantity of one or more species of bacteria in the soil and/or the plant roots is then determined and one or more soil bacteria-enriching agents that uniquely promote the growth and attraction of a desired bacterial species as compared to one or more other bacteria in the soil microbiome are identified. […]

[5] = tested on: Azospirillum brasilense; assay: Soil competition (soil bacteria-enrichment) assay, qPCR with strain-specific probes; type: cell-based; settings: 1 g non-sterile agriculture soil, 300 μL exudates, 20 mM target carbon substrate, four species pooled, 72 hours, qPCR (FIG. 21)
Procedure: as §1, §2

OC[C@H]1O[C@@H](Oc2ccc(O)cc2)[C@H](O)[C@@H](O)[C@@H]1O [arbutin, Arbutin]
enrichment of Bacillus subtilis in agricultural soils with a native microbiome [1]: can be used to enrich Bacillus subtilis

CCCCCCCCCC(=O)O [capric acid, Capric acid]
enrichment of Pseudomonas putida in agricultural soils with native microbiome [2]: can be used to enrich Pseudomonas putida

NCCc1ccccc1 [phenylethylamine, Phenylethylamine]
enrichment of Pseudomonas putida in agricultural soils with native microbiome [2]: can be used to enrich Pseudomonas putida
persistence of Pseudomonas putida in agricultural soil [3]: persists longer
enrichment of PP in the bulk soil ([4]; qPCR (FIG. 27)): enriched
enrichment of PP on plant root (root colonization) ([4]; root DNA qPCR (FIG. 28)): enriched

CCC(=O)[O-].[Na+] [sodium propionate]
enrichment of Azospirillum brasilense in agricultural soils with a native microbiome [5]: can be used to enrich Azospirillum brasilense

COC1OC(CO)C(O)C(O)C1O [α-methyl d-galactoside, a-Methyl-D-Galactoside]
enrichment of Bacillus subtilis in agricultural soils with a native microbiome [1]: can be used to enrich Bacillus subtilis
